Measurements published in ChEMBL document CHEMBL1201862, “PubChem BioAssay data set” (2004).
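Step 1: Grow cells in 96-well plates. Step 2: Expose to compound for 48 hours at 5 concentrations. Step 3: Interpolate endpoints linearly; if unreached, use highest concentration. GI50 is the concentration that inhibits growth by half.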 The source made the active and inactive calls. Rule as the data show it: active = GI50 up to about 1.1 µM and inactive = higher.

How the values were obtained:
Assay in all cases: growth of human tumour cells (NCI), 48 h
[1] = tested on: A549
[2] = tested on: ACHN
[3] = tested on: COLO 205
[4] = tested on: HCC 2998
[5] = tested on: HOP-92
[6] = tested on: HT-29
[7] = tested on: KM12
[8] = tested on: MDA-MB-435
[9] = tested on: MOLT-4
[10] = tested on: NCI-H460
[11] = tested on: NCI-H522
[12] = tested on: NCI/ADR-RES
[13] = tested on: PC-3
[14] = tested on: SF-268
[15] = tested on: SF-539
[16] = tested on: SK-MEL-28
[17] = tested on: SK-OV-3
[18] = tested on: UACC-257
[19] = tested on: BT-549

Measured: GI50

CC(=O)c1cc2ccccc2[n+]([O-])c1N
inactive: [1] > 100 µM | [2] > 100 µM | [3] > 100 µM | [4] > 100 µM | [5] > 100 µM | [6] > 100 µM | [7] > 100 µM | [8] > 100 µM | [9] > 100 µM | [10] > 100 µM | [11] > 100 µM | [12] > 100 µM | [13] > 100 µM | [14] > 100 µM | [15] > 100 µM | [16] > 100 µM | [17] > 100 µM | [18] > 100 µM

C=CCCn1nc(-c2ccccc2)oc1=O
inactive: [1] > 100 µM | [2] > 100 µM | [3] > 100 µM | [4] > 100 µM | [5] > 100 µM | [6] > 100 µM | [7] > 100 µM | [9] > 100 µM | [10] > 100 µM | [11] > 100 µM | [14] > 100 µM | [15] > 100 µM | [16] > 100 µM | [17] > 100 µM | [18] > 100 µM

CCOC(CNCCC(=O)OC)OCC
inactive: [1] > 10 µM | [2] > 10 µM | [3] > 10 µM | [4] > 10 µM | [5] > 10 µM | [6] > 10 µM | [7] > 10 µM | [8] > 10 µM | [9] > 10 µM | [10] > 10 µM | [11] > 10 µM | [12] > 10 µM | [13] > 10 µM | [14] > 10 µM | [15] > 10 µM | [16] > 10 µM | [17] > 10 µM | [18] > 10 µM

CC(C)(C)C=C=C(C(C)(C)C)P(=O)(O)O
inactive: [1] > 100 µM | [2] > 100 µM | [3] > 100 µM | [4] > 100 µM | [5] > 100 µM | [6] > 100 µM | [7] > 100 µM | [8] > 100 µM | [10] > 100 µM | [11] > 100 µM | [12] > 100 µM | [13] > 100 µM | [14] > 100 µM | [15] > 100 µM | [16] > 100 µM | [17] > 100 µM | [18] > 100 µM

CC1C2=CC=C(O2)C(C)(C)C2=CC=C(O2)C(C)(C)C2=CC=C(O2)C(C)(C)C2=CC=C1O2
inactive: [1] > 100 µM | [2] > 100 µM | [3] > 100 µM | [4] > 100 µM | [5] 18.9 µM | [6] > 100 µM | [7] > 100 µM | [9] > 100 µM | [10] > 100 µM | [11] > 100 µM | [14] > 100 µM | [15] > 100 µM | [16] > 100 µM | [17] > 100 µM | [18] > 100 µM

O=C(c1ccc(Cl)cc1Cl)N(C(=O)N1CCC(c2ccccc2)CC1)c1ccccc1
inactive: [1] > 100 µM | [2] > 100 µM | [19] > 100 µM | [3] 43.3 µM | [4] > 100 µM | [5] > 100 µM | [6] > 100 µM | [7] > 100 µM | [8] 55 µM | [9] 17.8 µM | [10] > 100 µM | [12] > 100 µM | [13] 91.2 µM | [15] > 100 µM | [16] > 100 µM | [17] > 100 µM | [18] 63.8 µM

O=C1CSC(c2c[nH]c3ccccc23)N1c1ccc(Cl)cc1 (configuration not stated)
inactive: [1] > 100 µM | [2] > 100 µM | [19] > 100 µM | [3] > 100 µM | [4] > 100 µM | [5] 2.85 µM | [6] > 100 µM | [7] > 100 µM | [8] > 100 µM | [9] > 100 µM | [10] > 100 µM | [12] > 100 µM | [14] > 100 µM | [15] > 100 µM | [16] > 100 µM | [17] > 100 µM | [18] > 100 µM

O=C(COc1ccccc1Cl)N1N=C(c2ccccc2)CC1(O)c1ccccc1 (configuration not stated)
inactive: [1] 16.9 µM | [2] 17.1 µM | [3] 18 µM | [4] 15.9 µM | [5] 22.3 µM | [6] 17 µM | [7] 21.2 µM | [9] 7.43 µM | [10] 18 µM | [11] 41.9 µM | [14] 24.6 µM | [15] 18.9 µM | [16] 17.4 µM | [17] 14.9 µM | [18] 20.7 µM
